Data published in patent US6204220A, “Substituted 2-oxo-3-alkynoic acids and methods of use thereof” (Rutgers, The State University of New Jersey, priority 1999, dated 2001).
Read-outs that look alike come from different tables or passages of the source.

Assays:
[1] = biological target: T1, Pyruvate decarboxylase from Saccharomyces cerevisiae (Saccharomyces cerevisiae, UniProt P06169); assay: Inactivation of pyruvate decarboxylase (PDC); type: biochemical
T1 construct: made in house; host or cells: E. coli
T1 sequence (P06169 2-563 limits assumed): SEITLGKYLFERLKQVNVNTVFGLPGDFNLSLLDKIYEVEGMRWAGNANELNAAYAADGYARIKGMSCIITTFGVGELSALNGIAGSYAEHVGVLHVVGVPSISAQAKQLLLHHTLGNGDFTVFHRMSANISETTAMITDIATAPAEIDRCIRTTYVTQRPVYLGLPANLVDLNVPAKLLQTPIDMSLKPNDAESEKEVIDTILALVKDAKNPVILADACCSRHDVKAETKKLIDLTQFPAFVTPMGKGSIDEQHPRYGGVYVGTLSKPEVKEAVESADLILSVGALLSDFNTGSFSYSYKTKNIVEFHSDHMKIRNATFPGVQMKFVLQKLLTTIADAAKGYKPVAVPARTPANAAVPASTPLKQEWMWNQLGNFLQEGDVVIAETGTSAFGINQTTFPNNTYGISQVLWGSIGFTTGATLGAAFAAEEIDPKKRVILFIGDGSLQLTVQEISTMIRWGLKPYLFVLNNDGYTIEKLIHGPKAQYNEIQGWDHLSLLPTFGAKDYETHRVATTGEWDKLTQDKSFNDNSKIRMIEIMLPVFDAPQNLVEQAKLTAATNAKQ
Protocol: Pyruvate decarboxylase from Saccharomyces cerevisiae was overexpressed in E. coli (Baburina et al., 1994), then purified according to Farrenkopf & Jordan (1992). It was assayed spectrophotometrically by coupling to alcohol dehydrogenase (Holzer et al., 1960).

[2] = biological target: T2, Pyruvate oxidase from Lactobacillus plantarum (Lactiplantibacillus plantarum, UniProt P37063); assay: Inactivation of pyruvate oxidase (POX); type: biochemical; conditions: for kinact/KI: read-out: kc/Ki,c (converted)
T2 construct: purchased Boehringer Mannheim (a gift, not bought)
T2 sequence (P37063 1-603): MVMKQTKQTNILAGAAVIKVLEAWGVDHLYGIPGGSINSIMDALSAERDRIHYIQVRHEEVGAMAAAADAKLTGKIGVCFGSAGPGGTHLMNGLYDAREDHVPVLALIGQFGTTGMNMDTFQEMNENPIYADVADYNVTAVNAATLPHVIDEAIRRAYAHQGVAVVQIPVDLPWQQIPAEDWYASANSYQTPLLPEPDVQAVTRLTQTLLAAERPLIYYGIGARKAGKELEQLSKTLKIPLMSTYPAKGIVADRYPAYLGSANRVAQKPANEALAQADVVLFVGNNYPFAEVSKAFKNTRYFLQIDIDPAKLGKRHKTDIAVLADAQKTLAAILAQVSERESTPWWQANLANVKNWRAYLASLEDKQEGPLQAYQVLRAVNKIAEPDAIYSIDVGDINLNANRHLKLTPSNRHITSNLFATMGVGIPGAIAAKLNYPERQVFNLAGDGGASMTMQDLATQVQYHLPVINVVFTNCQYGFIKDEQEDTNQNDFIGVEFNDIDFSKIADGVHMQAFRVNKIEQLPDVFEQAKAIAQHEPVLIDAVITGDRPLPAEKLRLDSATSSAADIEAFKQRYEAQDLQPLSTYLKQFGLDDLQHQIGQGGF
Protocol: Pyruvate oxidase from Lactobacillus plantarum was a gift from Boehringer Mannheim and was assayed according to the manufacturer's instructions at 25° C. by measuring the rate of 4-quinonimine production from H2 O2, 3,5-dichlorophenolsulfonic acid and 4-aminoantipyrine in the presence of horseradish peroxidase, at 546 nm, using a Cobas-Bio (Roche Diagnostics, Somerville, N.J.) automated centrifugal analyzer. The assay reaction mixture (total vol. 0.25 mL) contained: 40 mM sodium pyruvate; 50 mM potassium phosphate buffer, pH 6.5 with 10% (v/v) glycerol; 6.8 mM 3,5-dichlorophenolsulfonic acid; 0.03% of 4-aminoantipyrine; and 5u/mL of horseradish peroxidase. The reaction was initiated by adding POX.

[3] = PDC, catalytic site, read-out: Ki,c

| Structure (SMILES) | inhibition / inactivation of PDC (in words) [1] | saturation by inhibitor ([1]; PDC) | Ki [1, 3] [µM] | kinact ([1]; PDC, read-out: ki (converted)) [s⁻¹] | kinact/KI ([1]; read-out: kc/Ki,c, PDC) [M⁻¹ s⁻¹] | inhibition / inactivation of POX (in words) [2] | saturation by inhibitor ([2]; POX) | other results |
| --- | --- | --- | --- | --- | --- | --- | --- | --- |
| C#CC(=O)C(=O)O [2-oxo-3-butynoic acid, 2-Oxo-3-butynoic acid] | irreversibly inactivates | no | 2110 | 0.00141 | 0.667 | irreversibly inactivates | yes | Ki ([1]; PDC, read-out: Ki): 1100 µM; kinact ([1]; PDC, read-out: first order rate constant of inactivation (ki) (converted)): 0.0009 s⁻¹; kinact/KI ([1]; read-out: ki/Ki, PDC): 0.817 M⁻¹ s⁻¹; Ki ([2]; POX, read-out: Ki,c): 951 µM; kinact/KI ([2]; POX): 4.7 M⁻¹ s⁻¹; kinact ([2]; POX, read-out: ki (converted)): 0.00447 s⁻¹ |
| CCCC#CC(=O)C(=O)O [2-oxo-3-heptynoic acid, 2-Oxo-3-heptynoic acid] | inhibit | yes | 447 | 0.01 | 22.5 | inhibit | no | saturation by inhibitor ([1]; PDC (+50 mM pyruvamide)): yes; Ki ([1]; PDC (+50 mM pyruvamide), read-out: Ki,c): 59.7 µM; Ki ([1]; PDC (+50 mM pyruvamide), read-out: Ki,r): 382 µM; kinact ([1]; PDC (+50 mM pyruvamide), read-out: ki (converted)): 0.00523 s⁻¹; Ki ([1]; PDC, regulatory site, read-out: Ki,r): 921 µM; kinact/KI ([1]; read-out: kc/Ki,c, PDC (+50 mM pyruvamide)): 87.7 M⁻¹ s⁻¹; kinact/KI ([2]; POX, from linear portion at high inhibitor concentrations (d)): 0.32 M⁻¹ s⁻¹; kinact/KI ([2]; POX, from linear portion at low inhibitor concentrations (c)): 0.0615 M⁻¹ s⁻¹ |
